The nature of series [1]: Test on safe solvent solubility of compound. Type of series: physicochemical. The conditions noted are these: 23° C., ultrasound 30 minutes, visually observed; for Safety solvent solubility test CHN: cyclohexanone (CHN); for Safety solvent solubility test PGME: propylene glycol monomethyl ether (PGME); for Safety solvent solubility test PGMEA: propylene glycol monomethyl ether acetate (PGMEA). As for the experimental part:
(1) Test on Safe Solvent Solubility of Compound
The solubility of the compound in cyclohexanone (CHN), propylene glycol monomethyl ether (PGME), and propylene glycol monomethyl ether acetate (PGMEA) was evaluated according to the following standard using the dissolution amount in each solvent. For the measurement of the dissolution amount, the compound was precisely weighed into a test tube at 23° C., and the target solvent was added thereto at a predetermined concentration. Ultrasound was applied for 30 minutes in an ultrasonic cleaning machine. Then, the state of the liquid was visually observed.
Evaluation A: 20% by mass≤dissolution amount
Evaluation B: 10% by mass≤dissolution amount<20.0% by mass
Evaluation C: Dissolution amount<10% by mass

Series [2] is described as follows: 10% thermal reduction temperature by thermogravimetry (TG). Type of series: physicochemical. As to conditions: nitrogen gas stream, 10° C./min to 500° C. The procedure: (3) Thermal Reduction Temperature
“EXSTAR 6000 DSC” apparatus manufactured by SII NanoTechnology Inc. was used. About 5 mg of a sample was placed in an unsealed container made of aluminum, and the temperature was raised to 500° C. at a temperature increase rate of 10° C./min in a nitrogen gas (30 mL/min) stream. In this operation, 10% thermal reduction temperature was measured.

These results are taken from patent US10642156B2, “Resist base material, resist composition and method for forming resist pattern” (Mitsubishi Gas Chemical Company, Inc., priority 2015, dated 2020).

For `Oc1ccc(-c2ccc(O)c(C(c3cccc(I)c3)c3cc(-c4ccc(O)cc4)ccc3O)c2)cc1` [BiF-I-3], in series [1], the “Safety solvent solubility test CHN” value is recorded as “A (Evaluation A: 20% by mass≤dissolution amount)”, the “Safety solvent solubility test PGME” value was “A (Evaluation A: 20% by mass≤dissolution amount)” and the “Safety solvent solubility test PGMEA” value is recorded as “A (Evaluation A: 20% by mass≤dissolution amount)”. Moreover, the “10% thermal reduction temperature” value in series [2] was not below 300 °C.

With `Oc1ccc(C2=CC(C(c3ccc(I)cc3)c3cc(-c4ccc(O)cc4)ccc3O)C(O)C=C2)cc1` (stereo not drawn) [BiF-I-1], in series [1], the “Safety solvent solubility test CHN” value was “A (Evaluation A: 20% by mass≤dissolution amount)”, the “Safety solvent solubility test PGME” value is “A (Evaluation A: 20% by mass≤dissolution amount)” and the “Safety solvent solubility test PGMEA” value is recorded as “A (Evaluation A: 20% by mass≤dissolution amount)”. Moreover, in series [2], the “10% thermal reduction temperature” value is not below 300 °C.

For `COc1cc(I)cc(C(c2cc(C3C=CC(O)=CC3)ccc2O)C2C=C(C3=CCC(O)C=C3)C=CC2O)c1` (stereo not drawn) [BiF-I-2], in series [1], the “Safety solvent solubility test CHN” value is recorded as “A (Evaluation A: 20% by mass≤dissolution amount)”, the “Safety solvent solubility test PGME” value is listed as “A (Evaluation A: 20% by mass≤dissolution amount)” and the “Safety solvent solubility test PGMEA” value is recorded as “A (Evaluation A: 20% by mass≤dissolution amount)”. In series [2], the “10% thermal reduction temperature” value is not below 300 °C.
